Assay results: ChEMBL document CHEMBL5303573, “Mapping human microbiome drug metabolism by gut bacteria and their genes” (Nature, 2019)

Legend:
[1] = The drug is tested on Bacteroides fragilis strain: ATCC43859 for biotransformation. The drug concentrations were measured before and after a 12-h incubation by liquid-chromatography-coupled mass spectrometry (LC–MS); settings: 2 µM
[2] = The drug is tested on Enterobacter cancerogenus strain: ATCC35316 for biotransformation. The drug concentrations were measured before and after a 12-h incubation by liquid-chromatography-coupled mass spectrometry (LC–MS); settings: 2 µM
[3] = The drug is tested on Bacteroides caccae strain: ATCC43185 for biotransformation. The drug concentrations were measured before and after a 12-h incubation by liquid-chromatography-coupled mass spectrometry (LC–MS); settings: 2 µM
[4] = The drug is tested on Eubacterium ventriosum strain: ATCC27560 for biotransformation. The drug concentrations were measured before and after a 12-h incubation by liquid-chromatography-coupled mass spectrometry (LC–MS); type: ADME; design: dose 2 uM, timepoint 0 vs 12 hours; settings: 2 µM
[5] = The drug is tested on Escherichia coli strain: BW25113 for biotransformation. The drug concentrations were measured before and after a 12-h incubation by liquid-chromatography-coupled mass spectrometry (LC–MS); settings: 2 µM
[6] = The drug is tested on Clostridium symbiosum strain: ATCC14940 for biotransformation. The drug concentrations were measured before and after a 12-h incubation by liquid-chromatography-coupled mass spectrometry (LC–MS); settings: 2 µM
[7] = enterocloster bolteae, 12 h, 2 µM
[8] = The drug is tested on Ruminococcus gnavus strain: ATCC29149 for biotransformation. The drug concentrations were measured before and after a 12-h incubation by liquid-chromatography-coupled mass spectrometry (LC–MS); settings: mediterraneibacter gnavus, 2 µM
[9] = bacteroides intestinalis, 12 h, 2 µM
[10] = The drug is tested on Providencia rettgeri strain: DSM1131 for biotransformation. The drug concentrations were measured before and after a 12-h incubation by liquid-chromatography-coupled mass spectrometry (LC–MS); type: ADME; design: dose 2 uM, timepoint 0 vs 12 hours; settings: 2 µM
[11] = parabacteroides johnsonii, 12 h, 2 µM
[12] = The drug is tested on Clostridium ramosum strain: DSM1402 for biotransformation. The drug concentrations were measured before and after a 12-h incubation by liquid-chromatography-coupled mass spectrometry (LC–MS); settings: thomasclavelia ramosa, 2 µM
[13] = The drug is tested on Bacteroides pectinophilus strain: ATCC43243 for biotransformation. The drug concentrations were measured before and after a 12-h incubation by liquid-chromatography-coupled mass spectrometry (LC–MS); settings: 2 µM
[14] = The drug is tested on Edwardsiella tarda strain: ATCC23685 for biotransformation. The drug concentrations were measured before and after a 12-h incubation by liquid-chromatography-coupled mass spectrometry (LC–MS); settings: 2 µM
[15] = The drug is tested on Ruminococcus lactaris strain: ATCC29176 for biotransformation. The drug concentrations were measured before and after a 12-h incubation by liquid-chromatography-coupled mass spectrometry (LC–MS); settings: 2 µM
[16] = bacteroides fragilis, 12 h, 2 µM
[17] = The drug is tested on Alistipes indistinctus strain: DSM22520 for biotransformation. The drug concentrations were measured before and after a 12-h incubation by liquid-chromatography-coupled mass spectrometry (LC–MS); settings: 2 µM
[18] = The drug is tested on Coprococcus comes strain: ATCC27758 for biotransformation. The drug concentrations were measured before and after a 12-h incubation by liquid-chromatography-coupled mass spectrometry (LC–MS); type: ADME; design: dose 2 uM, timepoint 0 vs 12 hours; settings: 2 µM
[19] = bacteroides thetaiotaomicron, 12 h, 2 µM

SMILES	Bacterial Biotransformation [1]	Bacterial Biotransformation [2]	Bacterial Biotransformation [3]	Bacterial Biotransformation [4]	Bacterial Biotransformation [5]	Bacterial Biotransformation [6]	Bacterial Biotransformation [7]	Bacterial Biotransformation [8]	Bacterial Biotransformation [9]	Bacterial Biotransformation [10]	Bacterial Biotransformation [11]	Bacterial Biotransformation [12]	Bacterial Biotransformation [13]	Bacterial Biotransformation [14]	Bacterial Biotransformation [15]	Bacterial Biotransformation [16]	Bacterial Biotransformation [17]	Bacterial Biotransformation [18]	Bacterial Biotransformation [19]
CNCC[C@H](Oc1cccc2ccccc12)c1cccs1 [DULOXETINE]	Compound NOT metabolized	Compound metabolized	Compound NOT metabolized	Compound NOT metabolized	Compound metabolized	Compound NOT metabolized	Compound NOT metabolized	Compound NOT metabolized	Compound NOT metabolized	Compound metabolized	Compound metabolized	Compound NOT metabolized	Compound NOT metabolized						
CC(=O)OCC(CCn1cnc2cnc(N)nc21)COC(C)=O [FAMCICLOVIR]	Compound metabolized	Compound NOT metabolized	Compound metabolized	Compound NOT metabolized		Compound NOT metabolized	Compound NOT metabolized	Compound NOT metabolized	Compound metabolized	Compound NOT metabolized	Compound metabolized		Compound NOT metabolized	Compound NOT metabolized	Compound NOT metabolized	Compound metabolized	Compound metabolized	Compound NOT metabolized	Compound metabolized
CC(C)(C)NC(=O)[C@H]1CC[C@H]2[C@@H]3CC[C@H]4NC(=O)C=C[C@]4(C)[C@H]3CC[C@]12C [FINASTERIDE]	Compound metabolized	Compound NOT metabolized	Compound NOT metabolized	Compound NOT metabolized	Compound NOT metabolized	Compound NOT metabolized	Compound NOT metabolized	Compound NOT metabolized	Compound NOT metabolized				Compound NOT metabolized	Compound NOT metabolized	Compound NOT metabolized	Compound NOT metabolized	Compound NOT metabolized	Compound NOT metabolized	
OC(Cn1cncn1)(Cn1cncn1)c1ccc(F)cc1F [FLUCONAZOLE]		Compound NOT metabolized	Compound NOT metabolized	Compound NOT metabolized	Compound NOT metabolized	Compound metabolized	Compound NOT metabolized	Compound metabolized			Compound metabolized	Compound NOT metabolized	Compound NOT metabolized	Compound NOT metabolized	Compound NOT metabolized	Compound metabolized	Compound NOT metabolized		Compound metabolized
COc1ccc2c3c1O[C@H]1C[C@@H](O)C=C[C@@]31CCN(C)C2 [GALANTAMINE]	Compound metabolized	Compound NOT metabolized	Compound NOT metabolized	Compound NOT metabolized	Compound NOT metabolized	Compound NOT metabolized	Compound NOT metabolized	Compound NOT metabolized	Compound NOT metabolized	Compound NOT metabolized	Compound NOT metabolized		Compound NOT metabolized	Compound NOT metabolized	Compound NOT metabolized	Compound metabolized	Compound metabolized	Compound NOT metabolized	Compound metabolized
Cc1ccc(NC(=O)c2ccc(CN3CCN(C)CC3)cc2)cc1Nc1nccc(-c2cccnc2)n1 [IMATINIB]	Compound NOT metabolized	Compound NOT metabolized	Compound NOT metabolized	Compound NOT metabolized			Compound NOT metabolized	Compound NOT metabolized	Compound NOT metabolized		Compound NOT metabolized			Compound NOT metabolized	Compound NOT metabolized		Compound NOT metabolized	Compound NOT metabolized	Compound NOT metabolized
CCC(C)n1ncn(-c2ccc(N3CCN(c4ccc(OCC5COC(Cn6cncn6)(c6ccc(Cl)cc6Cl)O5)cc4)CC3)cc2)c1=O (stereo not drawn) [ITRACONAZOLE]	Compound NOT metabolized	Compound NOT metabolized	Compound NOT metabolized	Compound NOT metabolized	Compound NOT metabolized	Compound NOT metabolized	Compound NOT metabolized	Compound NOT metabolized	Compound NOT metabolized	Compound NOT metabolized	Compound NOT metabolized	Compound NOT metabolized	Compound NOT metabolized	Compound NOT metabolized	Compound NOT metabolized	Compound NOT metabolized		Compound NOT metabolized	Compound NOT metabolized
Nc1nnc(-c2cccc(Cl)c2Cl)c(N)n1 [LAMOTRIGINE]	Compound NOT metabolized	Compound NOT metabolized	Compound NOT metabolized	Compound NOT metabolized	Compound NOT metabolized	Compound NOT metabolized	Compound NOT metabolized	Compound NOT metabolized	Compound NOT metabolized	Compound NOT metabolized		Compound NOT metabolized	Compound NOT metabolized	Compound NOT metabolized	Compound NOT metabolized	Compound NOT metabolized		Compound NOT metabolized	
Cc1ccccc1N1C(=O)c2cc(S(N)(=O)=O)c(Cl)cc2NC1C (stereo not drawn) [METOLAZONE]	Compound NOT metabolized	Compound NOT metabolized	Compound NOT metabolized			Compound NOT metabolized		Compound NOT metabolized	Compound NOT metabolized		Compound NOT metabolized	Compound NOT metabolized	Compound NOT metabolized	Compound NOT metabolized					Compound NOT metabolized
COCCc1ccc(OCC(O)CNC(C)C)cc1.COCCc1ccc(OCC(O)CNC(C)C)cc1.O=C(O)C(O)C(O)C(=O)O (stereo not drawn) [METOPROLOL TARTRATE]	Compound metabolized	Compound NOT metabolized	Compound NOT metabolized	Compound NOT metabolized	Compound NOT metabolized	Compound NOT metabolized	Compound NOT metabolized	Compound NOT metabolized	Compound NOT metabolized	Compound NOT metabolized	Compound NOT metabolized	Compound NOT metabolized	Compound NOT metabolized	Compound NOT metabolized	Compound NOT metabolized	Compound NOT metabolized		Compound NOT metabolized	
